Assay results reported in patent US10287300B2 (Merck Patent GmbH, priority 2012, dated 2019).

How the values were obtained:
His-AKT (Full Length) = His-AKT (Full Length) (Homo sapiens (Human), UniProt P31749); experiment: AKT enzyme assay; format: biochemical; conditions: 160 uM ATP, 90 min at 25° C.
Method: A TTP Mosquito liquid handling instrument was used to place 125 nl of the appropriate concentration of inhibitor in 100% DMSO (for a dose response curve calculation) into each well of a 384-well plate. To this reaction components were added to a final volume of 12.5 μl: • 0.1 ng/μl His-AKT (Full Length), (Invitrogen, Part # P2999, Lot #641228C). • 160 uM ATP (Fluka, 02055) • 1 mM DTT (Sigma, D0632) • 1 mM MgCl2 (Sigma, M1028) • 1 μM substrate peptide (sequence FITC-AHA-GRPRTSSFAEG-NH2), • synthesized by Tufts Peptide Synthesis service. • 100 mM HEPES pH 7.5 (Calbiochem, 391338) • 0.015% Brij-35 (Sigma, B4184)
The reaction was incubated for 90 min at 25° C., and then stopped by the addition of 70 μl of Stop buffer (100 mM HEPES pH 7.5, 0.015% Brij-35, 10 mM EDTA (Sigma, E7889)).
The plate was read on a Caliper LC 3000 in an Off-Chip mobility shift assay format, using the following parameters for a 12-sipper chip: screening pressure −2.3 psi, upstream voltage −500, and downstream voltage −3000. These conditions caused unphosphorylated substrate and phosphorylated product peptide to resolve as separate peaks allowing direct measurement of percentage of conversion of substrate to product. The percent conversion was plotted against concentration of inhibitor to produce a sigmoidal dose response curve, from which an IC50 was calculated.

[1] = biological target: P70S6K (T412E mutant, Millipore) (Homo sapiens (Human), UniProt P23443, T412E); experiment: P70S6K enzyme assay; format: biochemical; conditions: 24 μM ATP, 90 min at 25° C.
P70S6K (T412E mutant, Millipore), sequence (P23443 whole entry T412E): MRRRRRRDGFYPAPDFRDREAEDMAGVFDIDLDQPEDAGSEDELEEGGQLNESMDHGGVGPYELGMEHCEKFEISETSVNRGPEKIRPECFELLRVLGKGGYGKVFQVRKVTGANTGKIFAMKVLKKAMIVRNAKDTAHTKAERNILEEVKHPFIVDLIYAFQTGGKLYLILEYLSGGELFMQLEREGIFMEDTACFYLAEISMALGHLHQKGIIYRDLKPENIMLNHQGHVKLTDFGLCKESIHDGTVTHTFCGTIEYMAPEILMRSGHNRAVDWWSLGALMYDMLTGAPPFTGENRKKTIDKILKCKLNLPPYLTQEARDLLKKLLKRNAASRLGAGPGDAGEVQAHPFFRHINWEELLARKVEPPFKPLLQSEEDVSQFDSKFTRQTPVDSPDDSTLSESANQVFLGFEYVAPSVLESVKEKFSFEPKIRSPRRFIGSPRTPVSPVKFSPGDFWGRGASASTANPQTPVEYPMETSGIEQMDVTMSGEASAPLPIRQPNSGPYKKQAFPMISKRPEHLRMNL
Method: P70S6K inhibitor compounds were diluted and plated in 96 well plates. A reaction mixture including the following components was then added to the compound plate to initiate the enzyme reaction; P70S6K (3 nM, T412E mutant, Millipore) was mixed with 24 μM ATP in an assay buffer containing 100 mM Hepes (pH 7.5), 5 mM MgCl2, 1 mM DTT, 0.015% Brij and 1 μM of the substrate peptide FITC-AHA-AKRRRLSSLRA-OH (derived from the S6 ribosomal protein sequence, FITC=fluorescein isothiocyanate, AHA=6-aminohexanoic acid). The reaction was incubated for 90 min at 25° C., before the addition of 10 mM EDTA to stop the reaction. The proportion of substrate and product (phosphorylated) peptide was analysed on a Caliper Life Sciences Lab Chip 3000, using a pressure of −1.4 psi, and upstream and downstream voltages of −3000 and −700 respectively. Product peaks were resolved before substrate peaks on the resulting chromatograms.

His-AKT (Full Length), sequence (P31749 whole entry): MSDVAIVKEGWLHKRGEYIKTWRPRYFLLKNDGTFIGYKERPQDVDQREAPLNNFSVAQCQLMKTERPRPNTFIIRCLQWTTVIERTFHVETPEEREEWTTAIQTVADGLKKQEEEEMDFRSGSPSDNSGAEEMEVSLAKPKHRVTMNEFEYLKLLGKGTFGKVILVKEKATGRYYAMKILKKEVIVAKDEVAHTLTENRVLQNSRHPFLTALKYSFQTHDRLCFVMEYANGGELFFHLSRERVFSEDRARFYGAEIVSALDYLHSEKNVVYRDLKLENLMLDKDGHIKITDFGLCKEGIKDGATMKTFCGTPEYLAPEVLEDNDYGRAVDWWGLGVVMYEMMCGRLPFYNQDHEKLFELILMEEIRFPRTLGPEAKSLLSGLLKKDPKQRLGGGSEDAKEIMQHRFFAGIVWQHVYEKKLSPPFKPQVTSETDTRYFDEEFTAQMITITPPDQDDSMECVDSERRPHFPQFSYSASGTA

SMILES | IC50 (His-AKT (Full Length)) | IC50 [1]
O=C1CNc2ncnc(N3CCN(C(CN4CCC4)c4ccc(F)c(F)c4)CC3)c2N1 (stereo not drawn) [Compound A51, 4-(4-(2-(azetidin-1-yl)-1-(3,4-difluorophenyl)ethyl)piperazin-1-yl)-7,8-dihydropteridin-6(5H)-one] | > 1000 nM | > 1000 nM
O=C1CNc2ncnc(N3CCN(C(CN4CCCC4)c4ccc(C(F)(F)F)cc4)CC3)c2N1 (stereo not drawn) [Compound A34, 4-{4-[2-Pyrrolidin-1-yl-1-(4-trifluoromethyl-phenyl)-ethyl]-piperazin-1-yl}-7,8-dihydro-5H-pteridin-6-one] | > 1000 nM | > 1000 nM
CN(C)CC(c1ccc(C(F)(F)F)cc1)N1CCN(c2ncnc3c2NC(=O)CN3)CC1 (stereo not drawn) [Compound A28, 4-{4-[2-dimethylamino-1-(4-trifluoromethyl-phenyl)-ethyl]-piperazin-1-yl}-7,8-dihydro-5H-pteridin-6-one] | 101 to 500 nM | 501 to 1000 nM
CN(C)CC(c1ccc(F)c(Cl)c1)N1CCN(c2ncnc3c2NC(=O)CN3)CC1 (stereo not drawn) [Compound A54, 4-(4-(1-(3-chloro-4-fluorophenyl)-2-(dimethylamino)ethyl)piperazin-1-yl)-7,8-dihydropteridin-6(5H)-one] | > 1000 nM | > 1000 nM
Cc1ccccc1C(CN1CCCC1)N1CCN(c2ncnc3c2NC(=O)CN3)CC1 (stereo not drawn) [Compound A46, 4-(4-(2-(pyrrolidin-1-yl)-1-(o-tolyl)ethyl)piperazin-1-yl)-7,8-dihydropteridin-6(5H)-one] | > 1000 nM | > 1000 nM
Cc1ccccc1C(CN(C)C)N1CCN(c2ncnc3c2NC(=O)CN3)CC1 (stereo not drawn) [Compound A45, 4-(4-(2-(dimethylamino)-1-(o-tolyl)ethyl)piperazin-1-yl)-7,8-dihydropteridin-6(5H)-one] | > 1000 nM | > 1000 nM
NCC(c1ccc(C(F)(F)F)cc1)C1CCN(c2ccnc3c2CCC3)CC1 (stereo not drawn) [Compound A3, 2-(1-(6,7-dihydro-5H-cyclopenta[b]pyridin-4-yl)piperidin-4-yl)-2-(4-(trifluoromethyl)phenyl)ethanamine] | > 1000 nM | > 1000 nM
CN(C)CC(c1ccc(C(F)(F)F)cc1)N1CCN(c2ncnc3c2OCCN3)CC1 (stereo not drawn) [Compound A5, [2-[4-(7,8-Dihydro-6H-pyrimido[5,4-b][1,4]oxazin-4-yl)-piperazin-1-yl]-2-(4-trifluoromethylphenyl)-ethyl]-dimethylamine] | 101 to 500 nM | > 1000 nM
CNCC(c1ccc(F)c(F)c1)N1CCN(c2ncnc3c2NC(=O)CN3)CC1 (stereo not drawn) [Compound A50, 4-(4-(1-(3,4-difluorophenyl)-2-(methylamino)ethyl)piperazin-1-yl)-7,8-dihydropteridin-6(5H)-one] | > 1000 nM | > 1000 nM
CN(C)CC(c1cccc(Cl)c1)N1CCN(c2ncnc3c2NC(=O)CN3)CC1 (stereo not drawn) [Compound A27, 4-{4-[2-dimethylamino-1-(3-chloro-phenyl)-ethyl]-piperazin-1-yl}-7,8-dihydro-5H-pteridin-6-one] | > 1000 nM | > 1000 nM
O=C1CNc2ncnc(N3CCN(C(CN4CCCC4)c4ccccc4Cl)CC3)c2N1 (stereo not drawn) [Compound A43, 4-(4-(1-(2-chlorophenyl)-2-(pyrrolidin-1-yl)ethyl)piperazin-1-yl)-7,8-dihydropteridin-6(5H)-one] | > 1000 nM | > 1000 nM
CN(C)CC(c1ccc(Cl)c(F)c1)N1CCN(c2ncnc3c2CCCN3)CC1 (stereo not drawn) [Compound A18, {2-(4-Chloro-3-fluoro-phenyl)-2-[4-(5,6,7,8-tetrahydro-pyrido[2,3-d]pyrimidin-4-yl)-piperazin-1-yl]-ethyl}-dimethylamine] | 25 to 100 nM | 101 to 500 nM
O=C1CNc2ncnc(N3CCN(C(CN4CCC4)c4ccccc4Cl)CC3)c2N1 (stereo not drawn) [Compound A42, 4-(4-(2-(azetidin-1-yl)-1-(2-chlorophenyl)ethyl)piperazin-1-yl)-7,8-dihydropteridin-6(5H)-one] | > 1000 nM | > 1000 nM

Next, values leading:

IC50 (His-AKT (Full Length)) | IC50 [1] | SMILES
> 1000 nM | > 1000 nM | CNCC(c1ccccc1Cl)N1CCN(c2ncnc3c2NC(=O)CN3)CC1 (stereo not drawn) [Compound A41, 4-(4-(1-(2-chlorophenyl)-2-(methylamino)ethyl)piperazin-1-yl)-7,8-dihydropteridin-6(5H)-one]
101 to 500 nM | > 1000 nM | CN(C)CC(c1ccc(Cl)cc1)N1CCN(c2ncnc3c2OCCN3)CC1 (stereo not drawn) [Compound A4, {2-(4-Chlorophenyl)-2-[4-(7,8-dihydro-6H-pyrimido[5,4-b][1,4]oxazin-4-yl)-piperazin-1-yl]-ethyl}-dimethylamine]
101 to 500 nM | > 1000 nM | CN(C)CC(c1ccc(Cl)c(F)c1)N1CCN(c2ncnc3c2NC(=O)CN3)CC1 (stereo not drawn) [Compound A58, 4-(4-(1-(4-chloro-3-fluorophenyl)-2-(dimethylamino)ethyl)piperazin-1-yl)-7,8-dihydropteridin-6(5H)-one]
> 1000 nM | > 1000 nM | O=C1CNc2ncnc(N3CCN(C(CN4CCCC4)c4ccccc4F)CC3)c2N1 (stereo not drawn) [Compound A35, 4-(4-(1-(2-fluorophenyl)-2-(pyrrolidin-1-yl)ethyl)piperazin-1-yl)-7,8-dihydropteridin-6(5H)-one]
> 1000 nM | > 1000 nM | CN(C)CC(c1ccccc1Cl)N1CCN(c2ncnc3c2NC(=O)CN3)CC1 (stereo not drawn) [Compound A40, 4-(4-(1-(2-chlorophenyl)-2-(dimethylamino)ethyl)piperazin-1-yl)-7,8-dihydropteridin-6(5H)-one]
> 1000 nM | > 1000 nM | O=C1CNc2ncnc(N3CCN(C(CN4CCCCC4)c4ccc(F)cc4)CC3)c2N1 (stereo not drawn) [Compound A31, 4-{4-[1-(4-fluoro-phenyl)-2-(piperidin-yl)-ethyl]-piperazin-1-yl}-7,8-dihydro-5H-pteridin-6-one]
> 1000 nM | > 1000 nM | CN(C)CC(c1ccccc1F)N1CCN(c2ncnc3c2NC(=O)CN3)CC1 (stereo not drawn) [Compound A36, 4-(4-(2-(dimethylamino)-1-(2-fluorophenyl)ethyl)piperazin-1-yl)-7,8-dihydropteridin-6(5H)-one]
101 to 500 nM | 501 to 1000 nM | CN(C)CC(c1ccc(C(F)(F)F)c(F)c1)N1CCN(c2ncnc3c2OCCN3)CC1 (stereo not drawn) [Compound A12, [2-[4-(7,8-Dihydro-6H-pyrimido[5,4-b][1,4]oxazin-4-yl)-piperazin-1-yl]-2-(3-fluoro-4-trifluoromethylphenyl)-ethyl]-dimethylamine]
> 1000 nM | > 1000 nM | CN(C)CCNCC(c1ccc(C(F)(F)F)cc1)N1CCN(c2ncnc3c2NC(=O)CN3)CC1 (stereo not drawn) [Compound A63, 4-(4-(2((2-(dimethylamino)ethyl)amino)-1-(4-(trifluoromethyl)phenyl)-ethyl)piperazin-1-yl)-7,8-dihydropteridin-6(5H)-one]
501 to 1000 nM | 501 to 1000 nM | O=C1CNc2ncnc(N3CCN(C(CN4CCCC4)c4ccc(Cl)cc4)CC3)c2N1 (stereo not drawn) [Compound A30, 4-{4-[1-(4-chloro-phenyl)-2-(pyrrolidin-yl)-ethyl]-piperazin-1-yl}-7,8-dihydro-5H-pteridin-6-one]
101 to 500 nM | 101 to 500 nM | CN(C)CC(c1ccc(C(F)(F)F)cc1)N1CCN(c2ncnc3c2CCN3)CC1 (stereo not drawn) [Compound A6, [2-[4-(6,7-Dihydro-5H-pyrrolo[2,3-d]pyrimidin-4-yl)-piperazin-1-yl]-2-(4-trifluoromethylphenyl)-ethyl]-dimethylamine]
501 to 1000 nM | > 1000 nM | NCC(c1ccc(F)cc1)N1CCN(c2ncnc3c2CCCN3)CC1 (stereo not drawn) [Compound A21, 2-(4-Fluoro-phenyl)-2-[4-(5,6,7,8-tetrahydro-pyrido[2,3-d]pyrimidin-4-yl)-piperazin-1-yl]-ethylamine]
> 1000 nM | > 1000 nM | NCC(c1ccc(C(F)(F)F)cc1)C1CCN(c2ncnc3c2OCCN3)CC1 (stereo not drawn) [Compound A23, 2-[1-(7,8-Dihydro-6H-pyrimido[5,4-b][1,4]oxazin-4-yl)-piperidin-4-yl]-2-(4-trifluoromethyl-phenyl)-ethylamine]
25 to 100 nM | 25 to 100 nM | CN(C)CC(c1ccc(C(F)(F)F)cc1)N1CCN(c2ncnc3c2CCCN3)CC1 (stereo not drawn) [Compound A9, Dimethyl-[2-[4-(5,6,7,8-tetrahydro-pyrido[2,3-d]pyrimidin-4-yl)-piperazin-1-yl]-2-(4-trifluoromethyl-phenyl)-ethyl]-amine]
